ChEMBL document CHEMBL1201862, “PubChem BioAssay data set” (2004)
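Results reflect a 48-hour exposure of cells in 96-well plates to compound at five concentrations. At the GI50, growth is halved.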 The source made the active and inactive calls. No stated cut-off is given here; in the data, active = GI50 up to about 1.1 µM and inactive = higher.

Assays:
Experiment in all cases: NCI tumour cell line growth inhibition, 48 h
M14 = system: M14
RXF 393 = system: RXF 393
SK-OV-3 = system: SK-OV-3
HCT-15 = system: HCT-15
TK-10 = system: TK-10
NCI-H226 = system: NCI-H226
EKVX = system: EKVX
DMS-114 = system: DMS-114
Malme-3M = system: Malme-3M
HOP-92 = system: HOP-92
A498 = system: A498
786-0 = system: 786-0
RPMI-8226 = system: RPMI-8226
UACC-62 = system: UACC-62
OVCAR-4 = system: OVCAR-4
HOP-62 = system: HOP-62
MCF7 = system: MCF7

SMILES | GI50 (M14) | GI50 (RXF 393) | GI50 (SK-OV-3) | GI50 (HCT-15) [µM] | GI50 (TK-10) | GI50 (NCI-H226) | GI50 (EKVX) | GI50 (DMS-114) | GI50 (Malme-3M) | GI50 (HOP-92) | GI50 (A498) | GI50 (786-0) | GI50 (RPMI-8226) | GI50 (UACC-62) | GI50 (OVCAR-4) | GI50 (HOP-62) | GI50 (MCF7)
C=C(/C=C/C=C(/CCC=C(C)C)COC(C)=O)[C@@H]1CC[C@]2([C@H](CCCO)/C(=C(/C)C=O)CC[C@]2(C)O)[C@@H]1O | 11 µM (inactive) | 18.4 µM (inactive) | 29.1 µM (inactive) | 14.5 | 14.2 µM (inactive) | 4.61 µM (inactive) | 18.1 µM (inactive) | 14.2 µM (inactive) | 0.0429 µM (active) | < 0.01 µM (active) |  |  |  |  |  |  | 
O=C1C2C3SC(c4cc5ccccc5cc43)C2C(=O)N1c1ccccc1 (stereo not drawn) | > 100 µM (inactive) | 28.1 µM (inactive) | > 100 µM (inactive) | > 100 | > 100 µM (inactive) | > 100 µM (inactive) | > 100 µM (inactive) | > 100 µM (inactive) | 70.3 µM (inactive) | 30.1 µM (inactive) | 41.8 µM (inactive) | 50.8 µM (inactive) | > 100 µM (inactive) | 95.1 µM (inactive) | 39.4 µM (inactive) |  | 
CNC(=O)c1cccc2c(Nc3ccc(NS(C)(=O)=O)cc3OC)c3cccc(C)c3nc12 | 0.102 µM (active) | 0.533 µM (active) | 0.054 µM (active) | 0.225 | 1.24 µM (inactive) | 0.0546 µM (active) | 1.34 µM (inactive) | 0.0322 µM (active) | 0.43 µM (active) | 0.228 µM (active) | 0.0841 µM (active) | 0.0483 µM (active) | 0.0525 µM (active) | 0.0631 µM (active) | 1.9 µM (inactive) | 0.0244 µM (active) | 
Cc1nc2ccccc2c(=O)n1CC(=O)O |  | > 100 µM (inactive) | > 100 µM (inactive) | > 100 |  | > 100 µM (inactive) | > 100 µM (inactive) | > 100 µM (inactive) | > 100 µM (inactive) | > 100 µM (inactive) | > 100 µM (inactive) |  | > 100 µM (inactive) | > 100 µM (inactive) | > 100 µM (inactive) | > 100 µM (inactive) | > 100 µM (inactive)
Nc1ccc2c(c1)C1=NNC(=O)CC1C2 (stereo not drawn) |  | > 100 µM (inactive) | > 100 µM (inactive) | > 100 |  | > 100 µM (inactive) | > 100 µM (inactive) | > 100 µM (inactive) | > 100 µM (inactive) | > 100 µM (inactive) | 60.4 µM (inactive) |  | > 40.4 µM (inactive) | > 100 µM (inactive) | 47.8 µM (inactive) | > 100 µM (inactive) | > 31.6 µM (inactive)
Cc1nc2c(nc1Cl)nc(Oc1ccc(Cl)cc1)c1ccccc12 | 85.7 µM (inactive) |  | > 100 µM (inactive) | > 100 |  | 27.9 µM (inactive) | > 100 µM (inactive) | 47.5 µM (inactive) | 74.3 µM (inactive) |  |  | 18.6 µM (inactive) | > 100 µM (inactive) | 48.2 µM (inactive) | 32 µM (inactive) | 28.6 µM (inactive) | 
O=C(O)c1nccnc1C(=O)O |  | > 100 µM (inactive) | > 100 µM (inactive) | > 100 | > 100 µM (inactive) | > 100 µM (inactive) | > 100 µM (inactive) | > 100 µM (inactive) | > 100 µM (inactive) | > 100 µM (inactive) |  | > 100 µM (inactive) | > 100 µM (inactive) | > 100 µM (inactive) | > 100 µM (inactive) |  | 
CC12CCC3C(CCC4CC(OC(=O)Cc5ccc(N(CCCl)CCCl)cc5)CCC43C)C1CCC(=O)N2 (stereo not drawn) | 17.7 µM (inactive) | 14.5 µM (inactive) | 18 µM (inactive) | 14.7 | 20.6 µM (inactive) | 15.7 µM (inactive) | 16.4 µM (inactive) | 12.8 µM (inactive) | 18.2 µM (inactive) | 16.1 µM (inactive) | 16.8 µM (inactive) | 15.5 µM (inactive) | 15.2 µM (inactive) |  | 15.9 µM (inactive) |  | 
